Results as given in patent publication US12275731B2, “Azaindole inhibitors of wild-type and mutant forms of LRRK2” (DANA-FARBER CANCER INSTITUTE, INC., priority 2018, dated 2025).

What was measured:
Assay in all cases: KinomeScan profiling
Format in all cases: binding
[1] = target: T1, STK16 (Homo sapiens, UniProt O75716); conditions: STK16, 1 μM; read-out: % control
T1 construct: purchased KinomeScan® (panel service)
In short: (§1)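 Compounds were screened at 1 μM in DMSO across a 468-kinase KinomeScan panel. Binding was expressed as % control, scaled between a positive control (0%) and DMSO (100%) using luminescence signal. A value under 35% counted as active.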

[2] = target: EPHA7 (Homo sapiens, UniProt Q15375); conditions: EPHA7, 1 μM; read-out: % control
In short: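 The panel spans 468 kinases, and each inventive compound was applied at 1 μM from DMSO. Lower % control means stronger binding; the activity cut-off is set at less than 35%.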

[3] = target: T2, MERTK (Homo sapiens, UniProt Q12866); conditions: read-out: % control
T2 sequence (Q12866 21-999): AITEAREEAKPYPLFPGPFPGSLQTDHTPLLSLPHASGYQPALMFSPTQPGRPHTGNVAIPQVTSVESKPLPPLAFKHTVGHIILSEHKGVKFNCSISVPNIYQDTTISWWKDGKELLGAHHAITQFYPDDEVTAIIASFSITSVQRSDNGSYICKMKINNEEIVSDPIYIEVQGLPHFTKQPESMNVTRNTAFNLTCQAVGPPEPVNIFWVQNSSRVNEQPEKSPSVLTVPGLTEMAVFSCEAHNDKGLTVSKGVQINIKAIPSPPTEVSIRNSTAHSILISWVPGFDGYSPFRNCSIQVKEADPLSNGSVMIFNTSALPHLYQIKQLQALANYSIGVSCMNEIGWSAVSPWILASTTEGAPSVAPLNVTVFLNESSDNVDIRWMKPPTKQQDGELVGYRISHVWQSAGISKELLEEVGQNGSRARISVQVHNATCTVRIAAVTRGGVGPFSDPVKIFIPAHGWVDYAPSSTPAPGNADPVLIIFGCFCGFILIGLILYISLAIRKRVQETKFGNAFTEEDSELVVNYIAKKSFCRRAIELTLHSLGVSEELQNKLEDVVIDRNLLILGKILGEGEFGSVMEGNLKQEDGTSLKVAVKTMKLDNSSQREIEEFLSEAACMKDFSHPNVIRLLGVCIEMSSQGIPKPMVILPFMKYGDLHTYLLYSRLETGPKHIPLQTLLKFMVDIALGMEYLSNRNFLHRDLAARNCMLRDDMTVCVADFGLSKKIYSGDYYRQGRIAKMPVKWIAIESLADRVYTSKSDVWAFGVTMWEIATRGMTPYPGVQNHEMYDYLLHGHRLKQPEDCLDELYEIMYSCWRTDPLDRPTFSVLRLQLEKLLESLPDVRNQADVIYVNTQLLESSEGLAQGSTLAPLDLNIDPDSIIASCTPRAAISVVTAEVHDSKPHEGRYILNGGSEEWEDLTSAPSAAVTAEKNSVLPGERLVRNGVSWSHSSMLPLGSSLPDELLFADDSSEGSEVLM
In short: as §1

[4] = target: T3, MARK4 (Homo sapiens, UniProt Q96L34); conditions: MARK4, 1 μM; read-out: % control
T3 sequence (Q96L34 1-752): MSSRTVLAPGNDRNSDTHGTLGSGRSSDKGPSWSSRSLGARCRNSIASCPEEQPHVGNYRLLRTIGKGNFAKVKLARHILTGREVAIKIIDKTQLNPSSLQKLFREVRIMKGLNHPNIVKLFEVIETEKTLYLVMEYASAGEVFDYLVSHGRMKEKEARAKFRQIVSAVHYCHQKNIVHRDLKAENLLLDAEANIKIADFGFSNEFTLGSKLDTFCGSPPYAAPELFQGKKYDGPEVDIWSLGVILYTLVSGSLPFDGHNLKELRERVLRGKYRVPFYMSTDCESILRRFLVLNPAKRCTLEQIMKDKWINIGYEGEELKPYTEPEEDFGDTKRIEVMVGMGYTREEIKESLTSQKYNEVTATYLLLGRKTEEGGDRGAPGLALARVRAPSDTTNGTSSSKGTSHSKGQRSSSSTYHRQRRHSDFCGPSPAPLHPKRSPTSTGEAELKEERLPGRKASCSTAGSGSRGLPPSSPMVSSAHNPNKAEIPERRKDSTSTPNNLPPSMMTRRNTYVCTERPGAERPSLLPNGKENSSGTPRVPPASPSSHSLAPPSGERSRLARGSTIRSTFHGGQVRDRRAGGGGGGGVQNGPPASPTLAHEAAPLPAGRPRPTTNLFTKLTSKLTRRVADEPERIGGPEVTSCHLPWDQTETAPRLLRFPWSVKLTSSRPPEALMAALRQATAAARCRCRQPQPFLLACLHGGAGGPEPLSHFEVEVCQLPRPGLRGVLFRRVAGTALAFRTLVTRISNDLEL
In short: as §1

[5] = target: EPHA4 (Homo sapiens, UniProt P54764); conditions: EPHA4, 1 μM; read-out: % control
In short: as §1

[6] = target: T4, MAP3K3 (Homo sapiens, UniProt Q99759); conditions: MAP3K3, 1 μM; read-out: % control
T4 sequence (Q99759 1-626): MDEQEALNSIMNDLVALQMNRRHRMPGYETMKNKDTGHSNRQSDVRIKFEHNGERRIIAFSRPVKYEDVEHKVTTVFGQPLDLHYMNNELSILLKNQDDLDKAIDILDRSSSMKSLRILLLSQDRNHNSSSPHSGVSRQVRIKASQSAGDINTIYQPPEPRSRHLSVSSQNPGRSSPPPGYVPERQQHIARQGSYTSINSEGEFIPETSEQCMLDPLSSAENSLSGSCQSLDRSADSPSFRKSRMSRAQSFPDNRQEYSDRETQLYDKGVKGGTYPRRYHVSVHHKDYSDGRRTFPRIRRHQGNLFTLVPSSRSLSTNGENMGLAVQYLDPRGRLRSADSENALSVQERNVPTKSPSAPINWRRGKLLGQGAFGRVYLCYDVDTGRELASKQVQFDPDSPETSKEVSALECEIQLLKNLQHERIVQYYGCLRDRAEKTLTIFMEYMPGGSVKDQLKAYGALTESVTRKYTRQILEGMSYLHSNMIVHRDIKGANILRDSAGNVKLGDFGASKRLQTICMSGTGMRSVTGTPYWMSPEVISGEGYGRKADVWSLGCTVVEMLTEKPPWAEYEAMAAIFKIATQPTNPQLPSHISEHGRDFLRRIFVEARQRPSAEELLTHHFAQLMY
In short: as §1

[7] = target: T5, ABL1(H396P)-nonphosphorylated (Homo sapiens, UniProt P00519, H396P); conditions: read-out: % control
T5 construct: purchased KinomeScan®
In short: as §1

Sequence of EPHA7 (Q15375 28-998): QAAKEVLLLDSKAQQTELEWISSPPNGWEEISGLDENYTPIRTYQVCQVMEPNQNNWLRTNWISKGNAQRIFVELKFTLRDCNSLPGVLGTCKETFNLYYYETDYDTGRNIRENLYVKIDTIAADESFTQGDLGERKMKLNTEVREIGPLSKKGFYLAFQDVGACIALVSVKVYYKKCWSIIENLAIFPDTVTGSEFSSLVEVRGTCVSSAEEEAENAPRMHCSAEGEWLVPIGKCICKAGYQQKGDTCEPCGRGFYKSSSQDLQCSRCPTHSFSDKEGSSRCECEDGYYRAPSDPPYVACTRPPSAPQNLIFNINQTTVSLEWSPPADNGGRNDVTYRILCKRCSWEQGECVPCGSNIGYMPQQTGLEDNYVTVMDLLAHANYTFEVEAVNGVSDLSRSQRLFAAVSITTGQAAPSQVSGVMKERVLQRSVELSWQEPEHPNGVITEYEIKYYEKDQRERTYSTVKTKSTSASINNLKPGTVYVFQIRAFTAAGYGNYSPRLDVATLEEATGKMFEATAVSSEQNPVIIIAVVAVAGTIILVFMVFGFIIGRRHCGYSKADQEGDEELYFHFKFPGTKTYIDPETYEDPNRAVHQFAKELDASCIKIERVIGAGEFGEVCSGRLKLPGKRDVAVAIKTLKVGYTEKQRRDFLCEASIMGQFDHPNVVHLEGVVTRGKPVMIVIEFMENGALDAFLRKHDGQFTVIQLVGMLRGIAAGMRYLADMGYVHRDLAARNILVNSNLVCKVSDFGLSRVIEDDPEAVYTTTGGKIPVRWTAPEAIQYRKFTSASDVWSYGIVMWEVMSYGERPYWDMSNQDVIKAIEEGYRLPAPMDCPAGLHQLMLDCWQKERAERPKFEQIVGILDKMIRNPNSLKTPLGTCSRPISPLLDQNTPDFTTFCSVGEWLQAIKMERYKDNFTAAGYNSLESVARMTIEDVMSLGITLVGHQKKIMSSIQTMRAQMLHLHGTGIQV
Sequence of EPHA4 (P54764 20-986): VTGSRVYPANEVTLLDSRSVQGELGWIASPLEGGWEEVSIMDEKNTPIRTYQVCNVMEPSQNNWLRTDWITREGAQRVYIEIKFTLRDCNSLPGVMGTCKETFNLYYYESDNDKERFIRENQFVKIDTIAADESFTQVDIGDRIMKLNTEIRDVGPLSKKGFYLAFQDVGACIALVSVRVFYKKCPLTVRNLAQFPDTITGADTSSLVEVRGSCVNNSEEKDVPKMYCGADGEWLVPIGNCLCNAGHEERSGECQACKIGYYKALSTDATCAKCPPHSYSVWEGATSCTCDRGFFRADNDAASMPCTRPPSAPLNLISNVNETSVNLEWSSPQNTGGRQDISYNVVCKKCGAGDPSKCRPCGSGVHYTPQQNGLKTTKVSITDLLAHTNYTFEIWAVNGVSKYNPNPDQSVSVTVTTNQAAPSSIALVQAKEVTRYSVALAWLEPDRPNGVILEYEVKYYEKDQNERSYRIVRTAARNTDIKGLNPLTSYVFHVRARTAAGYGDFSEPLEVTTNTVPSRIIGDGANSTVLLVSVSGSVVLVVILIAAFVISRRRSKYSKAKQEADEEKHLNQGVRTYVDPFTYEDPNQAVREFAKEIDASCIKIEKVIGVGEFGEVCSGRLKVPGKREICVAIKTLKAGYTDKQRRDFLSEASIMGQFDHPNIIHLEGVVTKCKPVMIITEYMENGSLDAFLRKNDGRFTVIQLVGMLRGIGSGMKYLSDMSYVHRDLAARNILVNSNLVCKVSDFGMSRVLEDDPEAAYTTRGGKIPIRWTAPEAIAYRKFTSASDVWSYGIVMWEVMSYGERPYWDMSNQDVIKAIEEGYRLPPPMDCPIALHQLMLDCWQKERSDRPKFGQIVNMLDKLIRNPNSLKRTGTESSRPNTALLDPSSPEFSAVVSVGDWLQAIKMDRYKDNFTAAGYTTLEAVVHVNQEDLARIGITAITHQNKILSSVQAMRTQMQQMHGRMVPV
T1 sequence (O75716 whole entry): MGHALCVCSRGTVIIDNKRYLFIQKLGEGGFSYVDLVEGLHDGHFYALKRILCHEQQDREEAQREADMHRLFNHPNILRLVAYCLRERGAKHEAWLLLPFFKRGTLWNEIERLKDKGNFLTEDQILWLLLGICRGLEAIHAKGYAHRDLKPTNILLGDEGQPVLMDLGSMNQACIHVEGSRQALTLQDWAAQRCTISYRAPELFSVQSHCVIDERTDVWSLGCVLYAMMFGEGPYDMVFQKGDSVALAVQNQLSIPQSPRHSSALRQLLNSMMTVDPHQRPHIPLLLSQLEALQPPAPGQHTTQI

Row | SMILES | remaining binding at 1 µM [1] [%] | remaining binding at 1 µM [2] [%] | remaining binding at 1 µM [3] [%] | remaining binding at 1 µM [4] [%] | remaining binding at 1 µM [5] [%] | remaining binding at 1 µM [6] [%] | remaining binding at 1 µM [7] [%]
1 | CNc1c(-c2cnn([C@H]3CCN(C(C)=O)C[C@@H]3F)c2)cnc2[nH]cc(Cl)c12 [Compound 77, 1-((3S,4S)-4-(4-(3-chloro-4-(methylamino)-1H-pyrrolo[2,3-b]pyridin-5-yl)-1H-pyrazol-1-yl)-3-fluoropiperidin-1-yl)ethan-1-one] | 2.9 | 78 | 45 | 36 | 96 | 44 | 36
2 | CNc1c(-c2ccc(C(=O)N3CCC(N4CCOCC4)CC3)cc2)cnc2[nH]cc(Cl)c12 [Compound 96, (4-(3-chloro-4-(methylamino)-1H-pyrrolo[2,3-b]pyridin-5-yl)phenyl)(4-morpholinopiperidin-1-yl)methanone] | 2 | 96 | 42 | 38 | 100 | 51 | 76
3 | O=C(c1ccc(-c2cnc3[nH]cc(Cl)c3c2NC2CCCC2)cc1)N1CCC(N2CCOCC2)CC1 [Compound 101, (4-(3-chloro-4-(cyclopentylamino)-1H-pyrrolo[2,3-b]pyridin-5-yl)phenyl)(4-morpholinopiperidin-1-yl)methanone] | 13 | 96 | 41 | 82 | 88 | 47 | 100
